Here are results for nine molecules from ChEMBL document CHEMBL1128159, “Synthesis and evaluation of diacylhydrazines as inhibitors of the interleukin-1 converting enzyme (ICE)” (Bioorg Med Chem Lett, 1995).

Where a SMILES comes first, the peptide text is derived from it.

Series [1] deals with T1, Caspase-1 (Homo sapiens) (UniProt P29466).
T1 sequence (whole entry): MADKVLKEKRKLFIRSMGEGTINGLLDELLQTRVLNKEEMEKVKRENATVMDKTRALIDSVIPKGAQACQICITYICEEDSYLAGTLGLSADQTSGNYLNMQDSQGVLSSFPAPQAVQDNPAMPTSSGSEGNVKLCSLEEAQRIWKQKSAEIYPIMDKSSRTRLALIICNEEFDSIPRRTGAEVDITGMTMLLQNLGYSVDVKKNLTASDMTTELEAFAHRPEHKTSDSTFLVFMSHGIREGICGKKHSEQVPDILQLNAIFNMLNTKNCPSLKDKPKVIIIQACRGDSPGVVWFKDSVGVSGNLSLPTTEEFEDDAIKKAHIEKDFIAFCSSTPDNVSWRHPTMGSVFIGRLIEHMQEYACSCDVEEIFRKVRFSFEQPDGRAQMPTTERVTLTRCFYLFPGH
The series can be described thus: Compound was tested for inhibition of IL-1 beta converting enzyme by measuring second order rate of inactivation.

The nature of series [2]: Half life of compound in ICE assay buffer (1 mM dithiothreitol) at 25 degree C. In kind it is ADME. As to conditions: ICE assay buffer with 1 mM dithiothreitol.
A short description of series [3]: Half life of compound in ICE assay buffer (1 mM glutathione) at […] degree C. In kind it is ADME. As to conditions: ICE assay buffer with 1 mM glutathione.
Series [4] can be described thus: Half life of compound in ICE assay buffer (1 mM dithiothreitol) at 25 degree C (89% intact after 120 h). In kind it is ADME. The conditions noted are these: ICE assay buffer with 1 mM dithiothreitol.
The nature of series [5]: Half life of compound in ICE assay buffer (1 mM dithiothreitol) at 25 degree C (98% intact after 120 h). In kind it is ADME. As to conditions: ICE assay buffer with 1 mM dithiothreitol.

Turning to `CC(C)[C@H](NC(=O)OCc1ccccc1)C(=O)N[C@@H](C)C(=O)NN(CC(=O)O)C(=O)COC1=C(Cc2ccccc2)C(=O)OC1`, in series [1], the second-order inactivation rate constant (kobs/[I]) came out at 120 M⁻¹ s⁻¹. In the case of `CC(C)[C@H](NC(=O)OCc1ccccc1)C(=O)N[C@@H](C)C(=O)N[C@@H](CC(=O)O)C(=O)CCl` (HELM PEPTIDE1{[O=C(OCc1ccccc1)[*:2]].V.A.D.[ClC[*:1]]}$$$$V2.0), the half-life (as a rule, how long it takes for the measured level to halve) in series [2] was 0.25 h. Turning to `CC(C)[C@H](NC(=O)OCc1ccccc1)C(=O)N[C@@H](C)C(=O)NN(CC(=O)O)C(=O)CCl`, the half-life was 3.5 h in series [3] and greater than 120 h in series [4]. For the same molecule, the second-order inactivation rate constant (kobs/[I]) in series [1] stood at 27300 M⁻¹ s⁻¹.

The molecule `CC(C)[C@H](NC(=O)OCc1ccccc1)C(=O)N[C@@H](C)C(=O)N[C@@H](CC(=O)O)C(=O)COP(=O)(c1ccccc1)c1ccccc1` showed a half-life in series [3] of 0.96 h. The same molecule registered a second-order inactivation rate constant (kobs/[I]) in series [1] of 118000 M⁻¹ s⁻¹. As for `CC(C)[C@H](NC(=O)OCc1ccccc1)C(=O)N[C@@H](C)C(=O)NC(CC(=O)O)C(=O)COC1=C(Cc2ccccc2)C(=O)OC1` (some centres undefined), in series [1], the second-order inactivation rate constant (kobs/[I]) came to 290000 M⁻¹ s⁻¹.

On to `CC(C)[C@H](NC(=O)OCc1ccccc1)C(=O)N[C@@H](C)C(=O)NN(CC(=O)O)C(=O)COP(=O)(c1ccccc1)c1ccccc1`, for which the half-life in series [3] is 130 h; in series [5] it was greater than 120 h. Moreover, the second-order inactivation rate constant (kobs/[I]) in series [1] amounted to 19400 M⁻¹ s⁻¹. In series [1], `CC(C)[C@H](NC(=O)OCc1ccccc1)C(=O)N[C@@H](C)C(=O)NN(CC(=O)O)C(=O)COC(=O)c1c(Cl)cccc1Cl` came in with a second-order inactivation rate constant (kobs/[I]) of 700 M⁻¹ s⁻¹. In turn, `CC(C)[C@H](NC(=O)OCc1ccccc1)C(=O)N[C@@H](C)C(=O)NN(CC(=O)O)C(=O)COc1cc(C(F)(F)F)nn1-c1ccccc1` yielded a second-order inactivation rate constant (kobs/[I]) in series [1] of 470 M⁻¹ s⁻¹. Regarding `CC(C)[C@H](NC(=O)OCc1ccccc1)C(=O)N[C@@H](C)C(=O)NN(CC(=O)O)C(=O)CBr`, in series [1], the second-order inactivation rate constant (kobs/[I]) was 1640 M⁻¹ s⁻¹.
